System: SEB/IL-2-stimulated PBMCs
Assay: Cytokine production in SEB/IL-2-stimulated PBMCs
Format: cell-based, human
Conditions: PBMCs from healthy donors and AS patients, SEB + IL-2 72 h

CCOCc1cnc(Cl)nc1Oc1ccc2c(ccc3sc4c(c32)NC[C@@H](C)NC4=O)n1 [CC-99677]
inhibited: IL-6 expression | IL-17A expression | MCP-1 expression | TNF expression

— article PMC9386913 (Arthritis Research & Therapy, 2022)
